Experimental data: patent US12606529B2, “Sulfur and amide tropolone inhibitors of nucleotidyl transferases and uses therefor” (Saint Louis University, priority 2019, dated 2026)
Values after ≈ are worked out from the molar mass of the structure shown.

Experiments:
[1] = target: T1, human RNaseH1 (Homo sapiens, UniProt O60930); experiment: Biochemical inhibition of human RNaseH1 activity; details: Table 2 amides; read-out: HuRH1 IC50
T1 sequence (O60930 1-286): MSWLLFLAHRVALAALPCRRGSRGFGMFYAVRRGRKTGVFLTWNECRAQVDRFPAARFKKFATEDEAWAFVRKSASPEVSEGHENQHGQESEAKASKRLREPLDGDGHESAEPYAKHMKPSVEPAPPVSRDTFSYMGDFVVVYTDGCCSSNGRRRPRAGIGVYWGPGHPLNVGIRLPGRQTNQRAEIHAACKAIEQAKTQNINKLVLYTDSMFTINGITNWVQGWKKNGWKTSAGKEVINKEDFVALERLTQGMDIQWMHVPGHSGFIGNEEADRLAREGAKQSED
Method: Biochemical inhibition of human RNaseH1 activity. Quantitative inhibition of the human RNaseH1 in the biochemical assays was assessed using a molecular beacon assay as described previously (Edwards et al., 2017). Recombinant human RNaseH 1 (0.3 μg) was incubated with 100 nM RNA:DNA substrate, 50 mM HEPES pH 8.0, 100 mM NaCl, 2 mM Tris(2-carboxyethyl)phosphine hydrochloride (TCEP), 0.05% Tween20, 5 units of RNaseOut, test compounds (0 to 500 μM), and 5% DMSO in a 100 μL reaction volume. The substrate was formed by annealing a complementary RNA oligonucleotide to a hairpin DNA oligonucleotide to hold the hairpin DNA oligonucleotide in an open conformation. The DNA oligonucleotide has a 5′ fluorescein reporter and a 3′ black hole quencher. When the RNA is degraded from the substrate the DNA oligonucleotide closes to form a hairpin structure, decreasing in signal intensity. Reactions were initiated with 5 mM MgCl2 and fluorescence was read using a Synergy HTS multi-mode plate reader at 37° C. Alternatively, the HBV RNaseH version used was MBP-HRHgtCΔ5, a genotype C isolate which lacks the C-terminal 35 amino acids of the HBV RNaseH domain that are predicted to be unstructured. Quantitative inhibition of the human RNaseH1 in biochemical assays was assessed using a FRET-based RNaseH assay under conditions previously reported for an RNaseH molecular beacon assay (Edwards et al., 2017). […] Cleavage of the RNA strand released the fluorescein from quenching, increasing fluorescence. Reactions were monitored for 90 min at 37° C. in a plate reader and initial reaction rates were calculated. Reactions contained escalating concentrations of the compounds.

[2] = system: HSV-1; experiment: Anti-HSV-1 replication assay (Vero cells, plaque titer); format: cell-based, herpes simplex virus 1; details: for log reduction at 0.33 µM / log reduction at 1 µM / log reduction at 5 µM: Human alphaherpesvirus 1, Vero, Table 2 amides; for log reduction at 0.33 µM: compound at 0.33 μM, read-out: HSV-1 suppression 0.33 μM; for log reduction at 1 µM: compound at 1 μM, read-out: HSV-1 suppression 1 μM; for log reduction at 1 µM / log reduction at 5 µM: values separated by / are repeats; for log reduction at 5 µM: compound at 5 μM, read-out: HSV-1 suppression 5 μM
[3] = system: C. neoformans var. grubii, KN99; experiment: C. neoformans growth inhibition assay (limiting dilution); format: cell-based, Cryptococcus neoformans; details: Cryptococcus neoformans, 48 h, Table 2 amides; 48 h, 35° C., tested 0.19 to 50 μM; read-out: C. neoformans MIC80
Method: Cell types used for C. neoformans studies. All inhibition assays were performed with C. neoformans var. grubii, KN99 (serotype A, MAT). Two clinical strains of C. neoformans var. grubii, serotype A, were provided by Tamara Doering and Andre Spec. […] Cells were diluted to OD650 0.001 in YNB-02 02 (0.67% yeast nitrogen base, 0.2% dextrose, pH 7.0 with 50 mM MOPs)+1% DMSO prior to addition to the plates for the inhibition assays.
C. neoformans growth inhibition assays. Compounds were tested in a limiting dilution assay with a starting optical density (at 650 nm) of 0.001 in YNB-02 plus 1% DMSO. Cells plus compound were incubated in 96-well clear round bottom plates covered with a Breath-easy® membrane without shaking for 48 hours at 35° C. Before measuring cell density, plates were shaken on a microtiter plate shaker at 900 rpm for 3 minutes to resuspend cells and optical density was measured at 650 nm. […] Each assay was done in triplicate and all values are the average of two or more independent assays. The data are presented as the average cell density as a percent of DMSO-only treated cells. MICs are reported as the minimal concentration needed to inhibit 80% of C. neoformans growth relative to vehicle-treated controls.

[4] = in vitro; details: human, HepDES19 cells
Method: Cells used for toxicity and HBV studies. […] Cells were maintained in Dulbecco's modified Eagle's medium (DMEM)/F12 media supplemented with 10% fetal bovine serum (FBS) and 1% penicillin/streptomycin (P/S) with 1 μg/mL tetracycline. Synchronized expression of HBV pgRNA was induced by removing tetracycline from the culture medium.
Cytotoxicity Assays. Qualitative assessments of cytotoxicity were done visually by inspecting the cells in the primary screening assays. […] The next day the compounds were added at 0.78 to 100 μM in a final concentration of 1% (v/v) DMSO, and the cells were incubated for 24 hours under conditions identical to those employed for the viral replication inhibition assays. Mitochondrial toxicity was measured by incubating the cells with 0.25 mg/mL thiazolyl blue tetrazolium bromide (MTT, SigmaAldrich Chemical Co.), the cultures were incubated for 60 mM, metabolites were solubilized in acidic isopropanol, and absorbance was read at 570 nm. CC50 values were calculated by non-linear curve fitting using GraphPad Prism using the three-parameter variable-response log(inhibitor)-versus-response algorithm with the bottom value set to zero.

Structure (SMILES)	IC50 [1] [µM]	log reduction at 0.33 µM [2]	log reduction at 1 µM [2]	log reduction at 5 µM [2]	MIC80 [3] [µM]	CC50 at 24 h ([4]; CC50 (μM), Table 2 amides, MTT) [µM]	Reduction of HSV-1 titers / suppression of HSV-1 replication at 5 μM ([2]; 5 μM, plaque forming units (PFU)/ml)	CC50 at 24 h ([4]; CC50) [µM]
Cc1cc(O)c(=O)c(O)cc1C(=O)NCc1ccc(Oc2ccccc2)cc1 [compound 807]	799 ± 403	0.0714	-0.11	4.54	4.5 (≈ 1.7 µg/mL)	6 ± 6.5		
Cc1cc(O)c(=O)c(O)cc1C(=O)N1CCN(C(=O)C2CCCCC2)CC1 [compound 872]	93 ± 53.3		-0.158	0.643	20 (≈ 7.49 µg/mL)	14.4 ± 3.7		
Cc1cc(O)c(=O)c(O)cc1C(=O)N1CCN(C(=O)N(c2ccccc2)c2ccccc2)CC1 [compound 1020]	12.9 ± 7.3				8 (≈ 3.68 µg/mL)	7.8 ± 3.7		
CCCCNC(=O)c1cc(O)c(=O)c(O)cc1C [compound 1039]	219 ± 87.6				12 (≈ 3.02 µg/mL)	8.7 ± 2.8		
COC(=O)[C@H](Cc1ccccc1)NC(=O)c1cc(O)c(=O)c(O)cc1C [compound 795]	43.5 ± 14.8				9 (≈ 3.22 µg/mL)	12.7 ± 5.5		
Cc1cc(O)c(=O)c(O)cc1C(=O)NCCCc1ccccc1 [compound 708]	267 ± 11.7			0.04	18 (≈ 5.64 µg/mL)	22.6 ± 12.8		
Cc1cc(O)c(=O)c(O)cc1C(=O)NCc1ccc(-c2ccccc2)cc1 [compound 539]	50 ± 9		0.52	5.3	4.5 (≈ 1.63 µg/mL)	3.6 ± 1.8	more than 5 log10	1.8
Cc1cc(O)c(=O)c(O)cc1C(=O)Nc1cccc(OCc2ccccc2)c1 [compound 836]	606 ± 482			5.2	4.5 (≈ 1.7 µg/mL)	5.4 ± 3.5		
Cc1cc(O)c(=O)c(O)cc1C(=O)N1CCS(=O)(=O)C1 [compound 709]	84.8 ± 6.7			-0.27	50 (≈ 15 µg/mL)	19.5 ± 6.7		
Cc1cc(O)c(=O)c(O)cc1C(=O)Nc1ccccc1 [compound 389]	78.4 ± 47.2			0.43	5.3 (≈ 1.44 µg/mL)	21.2 ± 9.5		> 20
Cc1cc(O)c(=O)c(O)cc1C(=O)Nc1cccc(Cc2ccccc2)c1 [compound 799]	713 ± 496	0.0848	0.411	3.88	2 (≈ 0.723 µg/mL)	5.3 ± 3.1		
Cc1cc(O)c(=O)c(O)cc1C(=O)NC(CCC(=O)OC(C)(C)C)C(=O)OC(C)(C)C (stereo not drawn) [compound 867]	675 ± 563			3.49	4.3 (≈ 1.88 µg/mL)	5.2 ± 1.3		
Cc1ccc(CNC(=O)c2cc(O)c(=O)c(O)cc2C)c(C)c1 [compound 809]	19.6 ± 20		0.0278	4.69	3.3 (≈ 1.03 µg/mL)	5.8 ± 6.5		
COC(=O)[C@H](Cc1c[nH]c2ccccc12)NC(=O)c1cc(O)c(=O)c(O)cc1C [compound 797]	44 ± 27.1				9 (≈ 3.57 µg/mL)	13.9 ± 13.3		
COc1ccc(C(=O)N2CCN(C(=O)c3cc(O)c(=O)c(O)cc3C)CC2)cc1 [compound 877]	34.9 ± 7.2		-0.232	0.175	14 (≈ 5.58 µg/mL)	16.5 ± 1.4		
Cc1cc(O)c(=O)c(O)cc1C(=O)N1CCN(S(=O)(=O)c2ccsc2)CC1 [compound 917]	30.7 ± 15.8				50 (≈ 20.5 µg/mL)	8.9 ± 4.1		
Cc1cc(O)c(=O)c(O)cc1C(=O)Nc1ccccc1Cc1ccccc1 [compound 834]	37.2 ± 17.2			1.8	9 (≈ 3.25 µg/mL)	16.4 ± 11.2		
Cc1cc(O)c(=O)c(O)cc1C(=O)N1CCN(c2ccc(C(F)(F)F)cc2)CC1 [compound 919]					2.5 (≈ 1.02 µg/mL)	5.5 ± 1.9		

Structure (SMILES)	IC50 [1] [µM]	log reduction at 0.33 µM [2]	log reduction at 1 µM [2]	log reduction at 5 µM [2]	MIC80 [3] [µM]	CC50 at 24 h ([4]; CC50 (μM), Table 2 amides, MTT) [µM]	Reduction of HSV-1 titers / suppression of HSV-1 replication at 5 μM ([2]; 5 μM, plaque forming units (PFU)/ml)	CC50 at 24 h ([4]; CC50) [µM]
Cc1cc(O)c(=O)c(O)cc1C(=O)NC(CC(C)C)C(=O)OC(C)(C)C (stereo not drawn) [compound 870]	289 ± 296			0.811	5 (≈ 1.83 µg/mL)	9.1 ± 2.7		
Cc1cc(O)c(=O)c(O)cc1C(=O)NCc1cccs1 [compound 801]	833 ± 289				50 (≈ 14.6 µg/mL)	61.1 ± 22.8		
Cc1cc(O)c(=O)c(O)cc1C(=O)N1CCN(C(=O)OC(C)(C)C)CC1 [compound 873]	74.7 ± 23.1		-0.148	0.2	20 (≈ 7.29 µg/mL)	19.5 ± 8.7		
Cc1cc(O)c(=O)c(O)cc1C(=O)NCC1CCN(C(=O)OC(C)(C)C)CC1 [compound 805]	77 ± 30.8				9 (≈ 3.53 µg/mL)	19.5 ± 10.8		
Cc1cc(O)c(=O)c(O)cc1C(=O)Nc1ccc(Cc2ccccc2)cc1 [compound 798]	467	-0.0103	2.32	4.39	1.2 (≈ 0.434 µg/mL)	3.3 ± 1.8		3.3
Cc1cc(O)c(=O)c(O)cc1C(=O)NC(CCCCNC(=O)OC(C)(C)C)C(=O)OC(C)(C)C (stereo not drawn) [compound 869]	602 ± 273			-0.147	9 (≈ 4.33 µg/mL)	14.6 ± 3.4		
Cc1cc(O)c(=O)c(O)cc1C(=O)N1CCN(C(=O)c2ccc(Cl)cc2)CC1 [compound 875]	17.2 ± 11		0.0449	1.32	7 (≈ 2.82 µg/mL)	4.7 ± 1.8		
COc1ccc(CNC(=O)c2cc(O)c(=O)c(O)cc2C)cc1 [compound 806]	61.4 ± 15.9				4.6 (≈ 1.45 µg/mL)	15.9 ± 6.9		
COC(=O)[C@@H](NC(=O)c1cc(O)c(=O)c(O)cc1C)C(C)C [compound 793]	178 ± 46.6				18 (≈ 5.57 µg/mL)	18.3 ± 9.8		
Cc1cc(O)c(=O)c(O)cc1C(=O)NCc1ccccc1 [compound 388]	166 ± 104			0.05	9 (≈ 2.57 µg/mL)	19.8 ± 3		
Cc1cc(O)c(=O)c(O)cc1C(=O)NCC1CCOC1 (stereo not drawn) [compound 1018]	129 ± 123				50 (≈ 14 µg/mL)	41.2 ± 33.4		
Cc1cc(O)c(=O)c(O)cc1C(=O)NCc1ccc(N2CCCC2)cc1 [compound 1019]	383 ± 471				4.5 (≈ 1.59 µg/mL)	10.7 ± 6		
Cc1cc(O)c(=O)c(O)cc1C(=O)N1CCN(C(=O)c2ccc([N+](=O)[O-])c3nonc23)CC1 [compound 920]	40.2 ± 39.7				50 (≈ 22.8 µg/mL)	19.3 ± 14.6		
Cc1cc(O)c(=O)c(O)cc1C(=O)N1CCN(c2oc(-c3ccco3)nc2C#N)CC1 [compound 803]	36.3 ± 4				32 (≈ 13.5 µg/mL)	23.7 ± 22.9		
COC(=O)[C@H](CC(C)C)NC(=O)c1cc(O)c(=O)c(O)cc1C [compound 794]	48.1 ± 15.4				9 (≈ 2.91 µg/mL)	14.7 ± 9.6		
Cc1cc(O)c(=O)c(O)cc1C(=O)NCC1CCCCN1C(=O)OC(C)(C)C (stereo not drawn) [compound 810]	41.5 ± 7.2				4.5 (≈ 1.77 µg/mL)	10.9 ± 11.2		
CCS(=O)(=O)N1CCN(C(=O)c2cc(O)c(=O)c(O)cc2C)CC1 [compound 802]	76.5 ± 46.9				50 (≈ 17.8 µg/mL)	27.1 ± 31.2		
Cc1cc(O)c(=O)c(O)cc1C(=O)NCC1COC(C)(C)O1 (stereo not drawn) [compound 808]	71.9 ± 12				9 (≈ 2.78 µg/mL)	14.9 ± 8.6		
